In US10550304B2, “Quaternary ammonium compounds and gas hydrate inhibitor compositions” (M-I DRILLING FLUIDS UK LIMITED, priority 2013, dated 2020):

Legend:
Skeletonema costatum = assay: Toxicity against Skeletonema costatum; assay type: cell-based; settings: over 72 hours
Protocol: The toxicity of a quaternary ammonium compound or an LDHI composition comprising the quaternary ammonium compound may be evaluated by testing against Skeletonema costatum and determining EC50 values in the aquatic environment. Also the percentage biodegradation may be measured after 28 days in seawater.
Toxicity was tested against Skeletonema costatum and EC50 values determined (over 72 hours).

[1] = Biodegradation in seawater, OECD TG 306 28 day method; settings: OECD TG 306, 28 days
Protocol: Environmental experiments were performed to test biodegradation and toxicity. The biodegradation tests used the standard OECD Guideline for Testing of Chemicals TG 306 (Biodegradability in Seawater) 28 day method (version adopted 17 Jul. 1992) for testing biodegradation of chemicals in seawater.

Biodegradation after 28 days [1]: 11%
SMILES: CCCCCCCCCCCCCC[P+](CCCC)(CCCC)CCCC.[Cl-] [TTPC, tributyl tetradecylphosphonium chloride]
EC50 (Skeletonema costatum): 0.016 µg/mL
